Source: patent publication US20250369974A1, “METHOD FOR MONITORING AND PREVENTING CLINICALLY SIGNIFICANT KETONE LEVELS IN PATIENTS RECEIVING DICHLOROACETATE CO-ADMINISTERED WITH A CARBOHYDRATE RESTRICTED DIET” (SAOL INTERNATIONAL DEVELOPMENT LTD., priority 2024, published 2025)
Where two headings read alike, the source gives them in different places.

Tests used:
[1] = tested on: patients with Pyruvate Dehydrogenase Complex Deficiency (PDCD); experiment: Plasma BHB (ketone) levels in Phase III study of DCA in PDCD patients; assay type: in vivo, human
Method: (§1) A total of 30 (of the 34) patients in the Phase III study in PDCD patients had lab values that could be evaluated throughout the study. Of these 30, 24 were defined to be adherent to a ketogenic diet based on their BHB level at baseline to be >0.3 mM.
(§2) A double-blind period (Phase A) and an open label period (Phase B) was performed in patients 6 months through 17 years of age with Pyruvate Dehydrogenase Complex Deficiency (PDCD) (n=34). Patients receiving DCA were dose-stratified according to GSTZ1 genotype. DCA was dosed orally (oral, nasogastric tube, or gastric tube route) at either 12.5 mg/kg (fast metabolizers) or 6.25 mg/kg (slow metabolizers), every 12 hours. Twenty-seven (27) of 34 patients (79%), were fast metabolizers. […]

[2] = tested on: patients with Pyruvate Dehydrogenase Complex Deficiency (PDCD); experiment: Plasma lactate levels in Phase III study of DCA in PDCD patients; assay type: in vivo, human
Method: as §1, §2
Plasma lactate levels were evaluated as a key biomarker in PDCD. Lactate is a universal marker of disease activity in PDCD, and its elevation is a direct result of the fundamental metabolic deficit. Patients with PDCD have chronically elevated levels of lactate due to decreased PDC activity. Lowering of plasma lactate with use of DCA is considered a biomarker of its activation of PDC.

[3] = tested on: patients with Pyruvate Dehydrogenase Complex Deficiency (PDCD); experiment: Phase III double-blind, placebo-controlled crossover study with open label period: ObsROmotor, GHA, seizures, observer survey; assay type: in vivo, human
Method: A double-blind period (Phase A) and an open label period (Phase B) was performed in patients 6 months through 17 years of age with Pyruvate Dehydrogenase Complex Deficiency (PDCD) (n=34). Patients receiving DCA were dose-stratified according to GSTZ1 genotype. DCA was dosed orally (oral, nasogastric tube, or gastric tube route) at either 12.5 mg/kg (fast metabolizers) or 6.25 mg/kg (slow metabolizers), every 12 hours. Twenty-seven (27) of 34 patients (79%), were fast metabolizers.
The drug product is a clear, colorless solution.
The primary efficacy outcome was assessed using an observer reported outcome that measures motor function, referred to as the ObsROmotor. The ObsROmotor is a daily observer reported survey that assesses weakness, incoordination, hypotonia (low muscle tone), hypertonia (rigidity, stiff muscle tone), and involuntary movements. Each domain was scored from 0 to 4, where 0 is no presence of the symptom, 1 is mild, 2 is moderate, 3 is severe and 4 extreme, with a total score ranging from 0 to 20.
PDCD is a heterogenous disease with neurologic, metabolic and structural abnormalities. An observer rated Global Health Assessment (GHA) was also used to assess the overall health of the patient in addition to ObsROmotor. GHA was measured each week to assess the prior 7 days using a 5-point scale (much better, better, no change, worse, much worse). GHA scores improved over time and the scores were correlated with ObsROmotor.

[4] = tested on: pediatric patients with PDCD; experiment: Survival study of DCA-treated patients versus untreated natural history cohort; assay type: in vivo, human; settings: primary endpoint, matched on age and sex; n=28 vs n=28; p=0.0273
Method: Efficacy was assessed in a second study by comparing overall survival in pediatric patients with PDCD treated with DCA (n=28) with an untreated natural history cohort of pediatric patients with genetically confirmed PDCD (n=28).

[5] = tested on: pediatric patients with PDCD; experiment: Adverse reaction data of Phase III study and open-label extension; assay type: in vivo, human
Method: In the Phase III study, the safety of DCA was assessed in 34 pediatric patients with PDCD aged 6 months to 17 years. Patients receiving DCA were dose-stratified post-randomization according to GSTZ1 genotype to mitigate risk of peripheral neuropathy. DCA was dosed at either 12.5 mg/kg or 6.25 mg/kg divided into two equal doses approximately 12 hours apart. The dose based on GSTZ1 genotyping was done at baseline before patients initiated therapy. As noted above, this Phase III controlled study was followed by an ongoing, open-label extension study, used to assess long term safety and survival outcomes.
In the open-label extension study, patients were treated for up to 3 years (median: 1.4 years) with DCA. The adverse events observed during the open-label phase of the study were similar to those observed in the double-blind portion of the study. During the open label portion of the trial there was a report of mild peripheral neuropathy in one patient who later withdrew from the study for a family relocation. This occurred after 18 months and was considered possibly drug related. DCA induced peripheral neuropathy has been identified as reversible upon therapy discontinuation.

GSTZ1 haplotype carriers = settings: cited from earlier work
[6] = Patient 01-001, DCA Open Label 1, keto ratio 4.0:1
[7] = Patient 01-001, DCA Open Label 2, keto ratio 4.0:1
[8] = Patient 01-001, DCA Open Label 3, keto ratio 4.0:1
[9] = Patient 01-001, DCA period, keto ratio 3.1:1
[10] = Patient 03-001, DCA Open Label 1, keto ratio Not Recorded
[11] = Patient 03-001, DCA Open Label 2, keto ratio 3.2:1
[12] = Patient 03-001, DCA Open Label 3, keto ratio 3.1:1
[13] = Patient 03-001, DCA period, keto ratio 4.0:1
[14] = Patient 07-003-S, DCA Open Label 1, keto ratio 0.7:1
[15] = Patient 07-003-S, DCA period, keto ratio 3.0:1
[16] = of the 24 patients adherent to the ketogenic diet
[17] = Phase III, all patients, p=0.006
[18] = severe patients (N=15), domain outside of motor function

## O=C(O)C(Cl)Cl [DCA, Dichloroacetate]
[1]; 9 patients without BHB increase, 2.04 mM not on DCA
  average BHB level while on DCA: 1.8 mM
[1]; 9 patients without BHB increase, 38% not on DCA
  measures that exceeded 3.0 mM BHB while on DCA: 24%
[1]; 15 patients that experienced an increase, 2.19 mM not on DCA
  average BHB level while on DCA: 3.27 mM
[1]; 15 patients that experienced an increase, 13% not on DCA
  measurements with clinically significant BHB (>3.0 mM) while on DCA: 62%
[1]; 15 patients that experienced an increase, on DCA vs not on DCA
  increase in average BHB level: 49%
[1]; [6]
  BHB: 3.19 mM
[1]; [7]
  BHB: 2.74 mM
[1]; [8]
  BHB: 4.08 mM
[1]; [9]
  BHB: 6.36 mM
[1]; [10]
  BHB: 4.41 mM
[1]; [11]
  BHB: 2.76 mM
[1]; [12]
  BHB: 2.06 mM
[1]; [13]
  BHB: 4.21 mM
[1]; [14]
  BHB: 2.38 mM
[1]; [15]
  BHB: 4.02 mM
[1]; group experiencing increases in BHB
  increase in the number of patients with BHB levels of 3.0 mM or higher: ~5 fold
[1]; group experiencing increases in BHB, 3% while not on DCA
  BHB levels greater than 4.0 while on DCA: 28%
[1]; [16]
  patients that did not experience a rise in ketone levels after administration of DCA: Nine
  patients with a rise in ketone levels after administration of DCA: 15
[2]; 9 patients without BHB increase
  drop in lactate: 11%
[2]; 9 patients without BHB increase, 51% not on DCA
  percentage of patients with normal lactate levels (2.0 mM or less) while on DCA: 71%
[2]; 15 patients with BHB increase
  drop in lactate levels while on DCA: 20%
[2]; 15 patients with BHB increase, 33% not on DCA
  percentage of patients with normal lactate levels (2.0 mM or less) while on DCA: 73%
[2]; [6]
  Lactate: 1.58 mM
[2]; [7]
  Lactate: 2.13 mM
[2]; [8]
  Lactate: 1.33 mM
[2]; [9]
  Lactate: 1.4 mM
[2]; [10]
  Lactate: 1.36 mM
[2]; [11]
  Lactate: 1.16 mM
[2]; [12]
  Lactate: 1.41 mM
[2]; [13]
  Lactate: 1.25 mM
[2]; [14]
  Lactate: 0.68 mM
[2]; [15]
  Lactate: 1.99 mM
[2]; [17]
  difference in plasma lactate, DCA vs. placebo: -0.477 mM
  reduction in plasma lactate levels, DCA vs. placebo: 21%
[2]; in both groups (with and without BHB increase)
  patients achieving lactate normalization while on DCA therapy: > 70%
[2]; vs. 42% on placebo, P=0.0114
  patients on DCA achieving normal levels (≤2mmol/L) of lactate: 66%
[3]; open label extension, of 34 patients
  patients maintaining stable disease or achieving clinically meaningful improvement (>20% reduction in ObsROmotor): 24
[3]; open-label office visits, 25 of the 26 respondents
  survey respondents noting improvement in cognition, verbal communication, mobility, and/or endurance: 96.2%
[3]; open-label portion
  observers rating patients with a GHA as better or much better: > 80%
[3]; patients with more severe impairment at baseline (N=15)
  patients showing improvement in motor function in at least one of the five domains: 93%
[3]; patients with more severe impairment at baseline (N=15), p=0.066
  improvement of motor function in the ObsROmotor scale vs. placebo: −1.12
[3]; severe patients (N=15)
  number of severe patients improving: hypertonia: 6
  number of severe patients improving: hypotonia: 8
  number of severe patients improving: incoordination: 6
  number of severe patients improving: involuntary movement: 6
  number of severe patients improving: weakness: 6
[3]; [18]
  number of severe patients improving: fatigue: 7
  number of severe patients improving: sleep: 8
[4]
  multivariate risk reduction in the relative risk of death vs untreated patients: 99%
[5]; DCA (N = 34)
  Balance disorder: 1 (2.9) n (%)
  Bruxism: 0 n (%)
  Constipation: 1 (2.9) n (%)
  Diarrhea: 1 (2.9) n (%)
  Fatigue: 1 (2.9) n (%)
  Flatulence: 0 n (%)
  Gastrointestinal disorders (SOC): 2 (5.9) n (%)
  General disorders and administration site conditions (SOC): 1 (2.9) n (%)
  Insomnia: 0 n (%)
  Irritability: 0 n (%)
  Muscular weakness: 1 (2.9) n (%)
  Musculoskeletal and connective tissue disorders (SOC): 1 (2.9) n (%)
  Nervous system disorders (SOC): 1 (2.9) n (%)
  Psychiatric disorders (SOC): 0 n (%)
  Salivary hypersecretion: 0 n (%)
  Skin and subcutaneous tissue disorders (SOC): 1 (2.9) n (%)
  Syncope: 1 (2.9) n (%)
  Tremor: 1 (2.9) n (%)
  Urticaria: 1 (2.9) n (%)
[5]; Phase III, 34 pediatric patients
  deaths: no deaths
[5]; n=2 of 34 DCA-treated patients
  most commonly reported adverse reaction: gastrointestinal disorders: 5.9%
[5]; open label portion, after 18 months, considered possibly drug related
  patients with report of mild peripheral neuropathy: one
GSTZ1 haplotype carriers; EGT carriers (fast metabolizers), 25 mg/kg/day
  risk of peripheral neuropathy adverse events: low risk
GSTZ1 haplotype carriers; EGT non-carriers (slow metabolizers), 12.5 mg/kg/day
  risk of peripheral neuropathy adverse events: experience the same
